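All cell lines were grown in 96-well plates and treated with compound for 48 hours. TGI: concentration producing complete growth inhibition.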
How the values were obtained:
Experiment in all cases: inhibition of tumour cell growth, NCI panel, 48 h
DLD-1 colon = test system: DLD-1 colon
CAKI-1 renal = test system: CAKI-1 renal
HOP-18 NSCLC = test system: HOP-18 NSCLC
SNB-78 CNS = test system: SNB-78 CNS
KM20L2 colon = test system: KM20L2 colon
M19-MEL melanoma = test system: M19-MEL melanoma
RXF-631 renal = test system: RXF-631 renal
DMS 114 small cell lung = test system: DMS 114 small cell lung
NCI-H522 lung = test system: NCI-H522 lung
LXFL 529 NSCLC = test system: LXFL 529 NSCLC
XF 498 CNS = test system: XF 498 CNS
DMS 273 small cell lung = test system: DMS 273 small cell lung

For `O=C(Nc1c(O)[nH]c(=S)[nH]c1=O)c1ccc2ccccc2n1`, the TGI (DLD-1 colon) was > 100 µM, the TGI (CAKI-1 renal) was > 100 µM and the TGI (HOP-18 NSCLC) was > 100 µM. The TGI (SNB-78 CNS) was > 100 µM, the TGI (KM20L2 colon) was > 100 µM and the TGI (M19-MEL melanoma) was > 100 µM. The TGI (RXF-631 renal) was > 100 µM, the TGI (DMS 114 small cell lung) was > 100 µM and the TGI (NCI-H522 lung) was > 100 µM. The TGI (LXFL 529 NSCLC) was > 100 µM.

With `CCOC(=O)/C(=C/c1ccc(C#N)cc1)N(CC)CC` the TGI (DLD-1 colon) was > 100 µM, the TGI (CAKI-1 renal) was > 100 µM and the TGI (HOP-18 NSCLC) was > 100 µM. The TGI (SNB-78 CNS) was > 100 µM, the TGI (M19-MEL melanoma) was > 100 µM and the TGI (RXF-631 renal) was > 100 µM. For the same compound, the TGI (XF 498 CNS) was > 100 µM, the TGI (DMS 114 small cell lung) was > 100 µM and the TGI (NCI-H522 lung) was > 100 µM. The TGI (LXFL 529 NSCLC) was > 100 µM.

For `COC(=O)[C@]1(C)CCC[C@@]2(C)C1CCC1=CC3(C(C)C)CCC12OO3` (stereo not given in full), the TGI (DLD-1 colon) was > 100 µM, the TGI (CAKI-1 renal) was > 100 µM and the TGI (SNB-78 CNS) was > 100 µM. For the same compound, the TGI (KM20L2 colon) was > 100 µM, the TGI (M19-MEL melanoma) was > 100 µM and the TGI (RXF-631 renal) was > 100 µM. For the same compound, the TGI (NCI-H522 lung) was > 100 µM and the TGI (LXFL 529 NSCLC) was > 100 µM.

For `COc1ccc([C@H]2CC(=O)NCCCCN2)cc1`, the TGI (DLD-1 colon) was > 100 µM, the TGI (CAKI-1 renal) was > 100 µM and the TGI (HOP-18 NSCLC) was > 100 µM. For the same compound, the TGI (SNB-78 CNS) was > 100 µM, the TGI (KM20L2 colon) was > 100 µM and the TGI (M19-MEL melanoma) was > 100 µM. The TGI (DMS 273 small cell lung) was > 100 µM, the TGI (XF 498 CNS) was > 100 µM and the TGI (DMS 114 small cell lung) was > 100 µM. The TGI (NCI-H522 lung) was > 100 µM and the TGI (LXFL 529 NSCLC) was > 100 µM.

For `Cc1ccc(Cl)c(NC(=O)C(=O)C(C(=O)c2ccncc2)C2OC(=O)c3ccccc32)c1` (stereo not given), the TGI (DLD-1 colon) was > 100 µM, the TGI (CAKI-1 renal) was > 100 µM and the TGI (HOP-18 NSCLC) was > 100 µM. The TGI (SNB-78 CNS) was > 100 µM, the TGI (M19-MEL melanoma) was > 100 µM and the TGI (RXF-631 renal) was > 100 µM. For the same compound, the TGI (XF 498 CNS) was > 100 µM, the TGI (DMS 114 small cell lung) was > 100 µM and the TGI (NCI-H522 lung) was > 100 µM. For the same compound, the TGI (LXFL 529 NSCLC) was > 100 µM.

In the case of `COc1ccc2c(c1)OC[C@@H]1c3cc4c(cc3O[C@H]21)OCO4`, the TGI (DLD-1 colon) is reported as > 100 µM, the TGI (CAKI-1 renal) is reported as > 100 µM and the TGI (HOP-18 NSCLC) is reported as > 100 µM. The TGI (SNB-78 CNS) was > 100 µM, the TGI (KM20L2 colon) was > 100 µM and the TGI (DMS 273 small cell lung) was > 100 µM. The TGI (XF 498 CNS) was > 100 µM, the TGI (DMS 114 small cell lung) was > 100 µM and the TGI (NCI-H522 lung) was > 100 µM. For the same compound, the TGI (LXFL 529 NSCLC) was > 100 µM.

`CC(C)OP(=O)(OC(C)C)C(=Nc1ccccc1)NNc1ccc([N+](=O)[O-])cc1` was tested, and the TGI (DLD-1 colon) was > 100 µM, the TGI (CAKI-1 renal) was > 100 µM and the TGI (SNB-78 CNS) was 43.1 µM. For the same compound, the TGI (KM20L2 colon) was > 100 µM, the TGI (M19-MEL melanoma) was > 100 µM and the TGI (DMS 273 small cell lung) was 59 µM. For the same compound, the TGI (XF 498 CNS) was 61 µM, the TGI (DMS 114 small cell lung) was 69.5 µM and the TGI (NCI-H522 lung) was 58 µM. For the same compound, the TGI (LXFL 529 NSCLC) was > 100 µM.

For `N#Cc1cc([N+](=O)[O-])ccc1NC(=O)C(=O)C(C(=O)/C=C/c1ccccc1)C1OC(=O)c2ccccc21` (stereo not given), the TGI (DLD-1 colon) was > 100 µM, the TGI (CAKI-1 renal) was > 100 µM and the TGI (HOP-18 NSCLC) was > 100 µM. The TGI (SNB-78 CNS) was > 100 µM, the TGI (KM20L2 colon) was > 100 µM and the TGI (M19-MEL melanoma) was > 100 µM. For the same compound, the TGI (RXF-631 renal) was > 100 µM, the TGI (XF 498 CNS) was > 100 µM and the TGI (DMS 114 small cell lung) was > 100 µM. The TGI (NCI-H522 lung) was > 100 µM and the TGI (LXFL 529 NSCLC) was > 100 µM.

Source: PubChem BioAssay (NCI)
